Consider 13 compounds from patent US20240190880A1 (THE REGENTS OF THE UNIVERSITY OF MICHIGAN, priority 2021, published 2024).

For one assay, the target named is T1, ER (Homo sapiens, UniProt P03372).
T1 construct: host or cells: T47D and MCF7 human breast cancer cells
T1 sequence (P03372 1-595): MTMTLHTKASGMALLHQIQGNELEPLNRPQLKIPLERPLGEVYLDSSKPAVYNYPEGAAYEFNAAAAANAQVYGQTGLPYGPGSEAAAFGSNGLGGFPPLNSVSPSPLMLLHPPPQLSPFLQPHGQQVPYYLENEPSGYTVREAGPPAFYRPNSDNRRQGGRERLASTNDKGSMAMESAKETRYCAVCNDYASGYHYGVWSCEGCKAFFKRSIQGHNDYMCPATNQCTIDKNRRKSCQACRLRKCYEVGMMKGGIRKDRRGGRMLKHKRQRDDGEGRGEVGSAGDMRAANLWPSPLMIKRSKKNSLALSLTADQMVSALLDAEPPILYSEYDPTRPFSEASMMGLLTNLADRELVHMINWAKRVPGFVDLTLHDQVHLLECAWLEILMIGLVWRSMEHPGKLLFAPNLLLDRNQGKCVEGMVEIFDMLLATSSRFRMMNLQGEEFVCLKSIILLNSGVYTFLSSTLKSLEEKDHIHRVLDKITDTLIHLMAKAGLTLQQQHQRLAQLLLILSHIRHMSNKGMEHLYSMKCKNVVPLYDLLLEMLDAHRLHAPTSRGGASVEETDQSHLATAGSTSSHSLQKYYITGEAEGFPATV
Put plainly: ER degradation activity, in-cell western blot analysis in T47D cells. The format is cell-based. Conditions: 16 hours, Table A does not say which cell line (T47D or MCF7), read-out: Potency (DC50). As for the experimental part: ER degradation activity was evaluated in the human breast cancer cell line T47D and MCF7 purchased from the American Type Culture Collection (ATCC), Manassas, VA, and maintained and cultured in Dulbecco's Modified Eagle's medium (DMEM) containing 10% fetal bovine serum, 1 unit/ml of penicillin and 1 μg/ml of streptomycin.
The protocol for the in-cell western blot analysis: a. seed cells in black-sided/clear bottom 96- or 384-well plates at 40,000 or 10,000 cells/well, overnight; b. add diluted compounds (final 0.5% DMSO), 16 hours. […] RT 2 h, gentle shaking. Negative control: cells plus secondary antibodies (no primary antibodies); e. wash ×4 with PBS+0.05-0.1% Tween 20, gentel shaking; f. anti-rabbit-680 and anti-mouse-800 (both 1:1000 in LiCor block+0.05% Tween20, RT 1 h, gentle shaking, no light. LI-COR: 0.2% to reduce background; g. wash×4 with PBS+0.05% Tween 20, gental shaking; h. add 100 μL or 25 μL of PBS to each well and read on CLX plate reader. The relative ER percentage in treated cells were obtained by comparing the values of treated wells to those in untreated and DMSO-treated wells as 100%.
With `C[C@@H]1Cc2c([nH]c3ccccc23)[C@@H](c2c(F)cc(N3CCC4(CCN(CC5Cc6cc7c(cc6C5)C(=O)N(C5CCC(=O)NC5=O)C7=O)CC4)CC3)cc2F)N1CC(F)(F)F` (stereo partly drawn) [E 231, 6-((9-(3,5-difluoro-4-((1R,3R)-3-methyl-2-(2,2,2-trifluoroethyl)-2,3,4,9-tetrahydro-1H-pyrido[3,4-b]indol-1-yl)phenyl)-3,9-diazaspiro[5.5]undecan-3-yl)methyl)-2-(2,6-dioxopiperidin-3-yl)-6,7-dihydrocyclopenta[f]isoindole-1,3(2H,5H)-dione], the DC50 (as a rule, the concentration at which degradation of the target reaches its halfway point) was more than 100 nM.

Turning to `O=C1CCC(N2C(=O)c3cc4c(cc3C2=O)CN(C2CCC(CN3CCN(c5ccc([C@@H]6c7ccc(O)cc7CC[C@@H]6c6ccccc6)cc5)CC3)CC2)C4)C(=O)N1` (stereo partly drawn) [E 290, 2-(2,6-dioxopiperidin-3-yl)-6-(4-((4-(4-((1R,2S)-6-hydroxy-2-phenyl-1,2,3,4-tetrahydronaphthalen-1-yl)phenyl)piperazin-1-yl)methyl)cyclohexyl)-6,7-dihydropyrrolo[3,4-f]isoindole-1,3(2H,5H)-dione], the DC50 lay within 10 to 100 nM.

As to `C[C@@H]1Cc2c([nH]c3ccccc23)[C@@H](c2c(F)cc(N3CCC(N4CCC(N5Cc6cc7c(cc6C5)C(=O)N(C5CCC(=O)NC5=O)C7=O)CC4)CC3)cc2F)N1CC(F)F` (stereo partly drawn) [E 87, 6-(1′-(4-((1R,3R)-2-(2,2-difluoroethyl)-3-methyl-2,3,4,9-tetrahydro-1H-pyrido[3-4-b]indol-1-yl)-3,5-difluorophenyl)-[1,4′-bipiperidin]-4-yl)-2-(2,6-dioxopiperidin-3-yl)-6,7-dihydropyrrolo[3,4-f]isoindole-1,3(2H,5H)-dione], the 50% degradation concentration (DC50) is more than 100 nM.

On to `C[C@@H]1Cc2c([nH]c3ccccc23)[C@@H](c2ccc(C3CCC(C(=O)N4CCC(N5Cc6cc7c(cc6C5)C(=O)N(C5CCC(=O)NC5=O)C7=O)CC4)CC3)nc2)N1CC(F)F` (stereo partly drawn) [E 319, 6-(1-(4-(5-((1R,3R)-2-(2,2-difluoroethyl)-3-methyl-2,3,4,9-tetrahydro-1H-pyrido[3,4-b]indol-1-yl)pyridin-2-yl)cyclohexane-1-carbonyl)piperidin-4-yl)-2-(2,6-dioxopiperidin-3-yl)-6,7-dihydropyrrolo[3,4-f]isoindole-1,3(2H,5H)-dione], for which the DC50 was more than 100 nM.

Take `O=C1CCC(N2C(=O)c3cc4c(cc3C2=O)CN(CC2CCN(c3ccc([C@@H]5c6ccc(O)cc6CC[C@@H]5c5ccccc5)cc3)CC2)C4)C(=O)N1` (mixture of isomers) [E 2, Rac-2-(2,6-dioxopiperidin-3-yl)-6-((1-(4-((1R,2S)-6-hydroxy-2-phenyl-1,2,3,4-tetrahydronaphthalen-1-yl)phenyl)piperidin-4-yl)methyl)-6,7-dihydropyrrolo[3,4-f]isoindole-1,3(2H,5H)-dione]: the DC50 was 10 to 100 nM.

On to `O=C1CCC(N2C(=O)c3cc4c(cc3C2=O)CN(c2ncc(CN3CC(Oc5ccc([C@@H]6c7ccc(O)cc7CC[C@@H]6c6ccccc6)cc5)C3)cn2)C4)C(=O)N1` (stereo partly drawn) [E327, 2-(2,6-dioxopiperidin-3-yl)-6-(5-((3-(4-((1R,2S)-6-hydroxy-2-phenyl-1,2,3,4-tetrahydronaphthalen-1-yl)phenoxy)azetidin-1-yl)methyl)pyrimidin-2-yl)-6,7-dihydropyrrolo[3,4-f]isoindole-1,3(2H,5H)-dione], for which the DC50 is more than 100 nM.

As for `O=C1CCC(N2C(=O)c3cc4c(cc3C2=O)CN(Cc2cnc(N3CC(Oc5ccc([C@@H]6c7ccc(O)cc7CC[C@@H]6c6ccccc6)cc5)C3)cn2)C4)C(=O)N1` (stereo partly drawn) [E 342, 2-(2,6-dioxopiperidin-3-yl)-6-((5-(3-(4-((1R,2S)-6-hydroxy-2-phenyl-1,2,3,4-tetrahydronaphthalen-1-yl)phenoxy)azetidin-1-yl)pyrazin-2-yl)methyl)-6,7-dihydropyrrolo[3,4-f]isoindole-1,3(2H,5H)-dione], the DC50 was more than 100 nM.

On to `O=C1CCC(N2C(=O)c3cc4c(cc3C2=O)CN(CC(=O)N2CCC(C(=O)N3CC(Oc5ccc([C@@H]6c7ccc(O)cc7CC[C@@H]6c6ccccc6)cc5)C3)CC2)C4)C(=O)N1` (stereo partly drawn) [E 376, 2-(2,6-dioxopiperidin-3-yl)-6-(2-(4-(3-(4-((1R,2S)-6-hydroxy-2-phenyl-1,2,3,4-tetrahydronaphthalen-1-yl)phenoxy)azetidine-1-carbonyl)piperidin-1-yl)-2-oxoethyl)-6,7-dihydropyrrolo[3,4-f]isoindole-1,3(2H,5H)-dione], for which the half-maximal degradation concentration (DC50) is more than 100 nM.

For `O=C1CCC(N2C(=O)c3cc4c(cc3C2=O)CN(CC2CN(CC3CN(c5ccc([C@@H]6c7ccc(O)cc7CC[C@@H]6c6ccc(F)cc6)cc5)C3)C2)C4)C(=O)N1` (stereo partly drawn) [E 278, 2-(2,6-dioxopiperidin-3-yl)-6-((1-((1-(4-((1R,2S)-2-(4-fluorophenyl)-6-hydroxy-1,2,3,4-tetrahydronaphthalen-1-yl)phenyl)azetidin-3-yl)methyl)azetidin-3-yl)methyl)-6,7-dihydropyrrolo[3,4-f]isoindole-1,3(2H,5H)-dione], the DC50 is more than 100 nM.

With `O=C1CCC(N2Cc3cc4c(cc3C2=O)CN(CC(=O)N2CCC3(C2)CN(c2ccc([C@@H]5c6ccc(O)cc6CC[C@@H]5c5ccccc5)cc2)C3)C4)C(=O)N1` (mixture of isomers) [E 6, rac-3-(6-(2-(2-(4-((1R,2S)-6-hydroxy-2-phenyl-1,2,3,4-tetrahydronaphthalen-1-yl)phenyl)-2,6-diazaspiro[3.4]octan-6-yl)-2-oxoethyl)-1-oxo-3,5,6,7-tetrahydropyrrolo[3,4-f]isoindol-2(1H)-yl)piperidine-2,6-dione], the DC50 is less than 10 nM.

Consider `C[C@@H]1Cc2c([nH]c3ccccc23)[C@@H](c2c(F)cc(N3CCC4(CN(C(=O)CN5Cc6cc7c(cc6C5)C(=O)N(C5CCC(=O)NC5=O)C7)C4)C3)cc2F)N1CC(F)F` (stereo partly drawn) [E 72, 3-(6-(2-(6-(4-((1R,3R)-2-(2,2-difluoroethyl)-3-methyl-2,3,4,9-tetrahydro-1H-pyrido[3,4-b]indol-1-yl)-3,5-difluorophenyl)-2,6-diazaspiro[3.4]octan-2-yl)-2-oxoethyl)-1-oxo-3,5,6,7-tetrahydropyrrolo[3,4-f]isoindol-2(1H)-yl)piperidine-2,6-dione], for which the DC50 was less than 10 nM.

In the case of `C[C@@H]1Cc2c([nH]c3ccccc23)[C@@H](c2c(F)cc(N3CC(F)(C(=O)N4CCC(F)(CN5Cc6cc7c(cc6C5)C(=O)N(C5CCC(=O)NC5=O)C7=O)CC4)C3)cc2F)N1CC(F)F` (stereo partly drawn) [E 210, 6-((1-(1-(4-((1R,3R)-2-(2,2-difluoroethyl)-3-methyl-2,3,4,9-tetrahydro-1H-pyrido[3,4-b]indol-1-yl)-3,5-difluorophenyl)-3-fluoroazetidine-3-carbonyl)-4-fluoropiperidin-4-yl)methyl)-2-(2,6-dioxopiperidin-3-yl)-6,7-dihydropyrrolo[3,4-f]isoindole-1,3(2H,5H)-dione], the DC50 is more than 100 nM.

The same assay, now with this note: compounds 16 hours, Table A does not say whether T47D or MCF7, read-out: Potency (DC50).
In the case of `O=C1CCC(N2C(=O)c3cc4c(cc3C2=O)CN(C[C@H]2CC[C@H](C(=O)N3CC(Oc5ccc([C@@H]6c7ccc(O)cc7CC[C@@H]6c6ccccc6)cc5)C3)CC2)C4)C(=O)N1` (mixture of isomers) [E 498, 2-(2,6-dioxopiperidin-3-yl)-6-(((IRS,4SR)-4-(3-(4-((1R,2S)-6-hydroxy-2-phenyl-1,2,3,4-tetrahydronaphthalen-1-yl)phenoxy)azetidine-1-carbonyl)cyclohexyl)methyl)-6,7-dihydropyrrolo[3,4-f]isoindole-1,3(2H,5H)-dione], the DC50 was in the range of 10 to 100 nM.
